Laboratory results from ChEMBL document CHEMBL1201862, “PubChem BioAssay data set” (2004).
Activity calls are given as the source filed them.

Key:
[1] = target: T1, Methionyl-tRNA synthetase, putative (Trypanosoma brucei brucei, UniProt Q38C91); type: functional, Trypanosoma brucei brucei strain 927/4 GUTat10.1
T1 sequence (Q38C91 whole entry): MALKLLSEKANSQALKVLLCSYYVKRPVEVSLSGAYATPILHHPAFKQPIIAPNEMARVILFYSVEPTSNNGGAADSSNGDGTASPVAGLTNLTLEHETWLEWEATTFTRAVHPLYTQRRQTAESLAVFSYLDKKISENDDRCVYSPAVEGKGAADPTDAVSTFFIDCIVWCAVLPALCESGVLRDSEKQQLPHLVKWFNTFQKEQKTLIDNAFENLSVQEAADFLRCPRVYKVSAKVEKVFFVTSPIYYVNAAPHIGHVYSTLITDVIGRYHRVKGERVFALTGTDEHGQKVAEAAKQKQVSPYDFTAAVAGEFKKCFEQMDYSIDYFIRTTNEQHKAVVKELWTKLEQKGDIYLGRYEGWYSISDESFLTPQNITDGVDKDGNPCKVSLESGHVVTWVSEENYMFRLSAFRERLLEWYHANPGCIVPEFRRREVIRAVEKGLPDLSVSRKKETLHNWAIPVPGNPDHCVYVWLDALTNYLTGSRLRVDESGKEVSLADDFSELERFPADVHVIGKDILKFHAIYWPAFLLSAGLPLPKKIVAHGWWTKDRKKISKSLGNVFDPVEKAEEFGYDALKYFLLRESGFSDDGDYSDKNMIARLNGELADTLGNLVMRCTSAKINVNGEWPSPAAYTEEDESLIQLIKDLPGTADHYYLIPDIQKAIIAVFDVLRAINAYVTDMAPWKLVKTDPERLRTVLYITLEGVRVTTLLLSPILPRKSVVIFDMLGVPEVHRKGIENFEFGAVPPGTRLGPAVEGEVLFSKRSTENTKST

[2] = target: T1, Methionyl-tRNA synthetase, putative; type: functional, Trypanosoma brucei brucei strain 927/4 GUTat10.1; remark: listed apart in the source
[3] = Counterscreen for inhibitors of Trypanosoma brucei methionyl tRNA synthetase (MetRS): Luminescence-based cell-based high throughput dose response assay to identify compounds that are cytotoxic to Jurkat human T lymphocyte cells.; type: functional
cells [4] = assay: cells
Major prion protein = Major prion protein (Homo sapiens, UniProt P04156); type: functional, cell-based
[5] = LGR2 antagonists, dose response, cell-based, HEK293, CRE-luciferase reporter, cherry pick, set 2 (AID 743343); type: functional;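 also: transfected cells were stimulated with diluted bursicon conditioned medium after compound addition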
[6] = MC4R antagonists, dose response, counter-screen for LGR2 antagonist project, cell-based, plate reader, cherry pick (AID 743444); type: functional;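 also: transfected HEK 293 cells stimulated with alpha-MSH peptide; potency of inhibitors of the alpha-MSH evoked signal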
[7] = HepG2 cell cytotoxicity, dose response, cytotoxicity control, plate reader, cherry-pick, antagonist series (AID 743416); type: functional, cell-based
[8] = A549 cell cytotoxicity, dose response, cytotoxicity control, plate reader, cherry-pick, antagonist series (AID 743412); type: functional, cell-based
[9] = HEK293 cell cytotoxicity, dose response, cytotoxicity control, plate reader, cherry-picked samples (AID 743446); type: functional, cell-based
Galanin receptor type 3 = Galanin receptor type 3 (Homo sapiens, UniProt O60755); assay: Fluorescence-based cell-based primary high throughput dose response assay to identify antagonists of the Galanin Receptor 3 (GalR3).; type: functional
HEK293 [10] = assay: cells; type: functional, cell-based; conditions: Homo sapiens
HEK293 [11] = assay: NOD2 signaling inhibitors in MDP-stimulated cells, cell-based, uHTS, luminescence (AID 2001); type: functional; conditions: Homo sapiens
HEK293 [12] = assay: cells; type: functional, cell-based; conditions: Homo sapiens; remark: listed apart in the source
HEK293 [13] = assay: NOD1 signaling inhibitors, primary screen, cell-based, luminescence, uHTS (AID 1578); type: functional; conditions: Homo sapiens
cells [14] = type: functional, cell-based; conditions: HEK-CNG
[15] = target: 5-hydroxytryptamine receptor 2A (Mus musculus, UniProt P35363); type: functional, cell-based;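 also: CHO-K1 cells with tagged receptor and beta-arrestin; agonist potency measured as compound-induced activation of the receptor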
Mu-type opioid receptor = Mu-type opioid receptor (Homo sapiens, UniProt P35372); type: functional, cell-based;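 also: U2OS cells with beta-arrestin recruitment to OPRM1 by beta-gal complementation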
[16] = target: T2, Small ubiquitin-related modifier 1 (Homo sapiens, UniProt P63165); assay: inhibitors of SUMO1 partner interactions, dose response, biochemical, FRET (AID 624383); type: functional; conditions: read-out: IC50_Mean
[17] = target: T2, Small ubiquitin-related modifier 1; assay: inhibitors of SUMO1 peptide binding, dose response, biochemical, fluorescence polarization, uHTS hits (AID 624382); type: functional; conditions: read-out: IC50_Mean
Paired box protein Pax-8 = Paired box protein Pax-8 (Homo sapiens, UniProt Q06710); assay: inhibitors of PAX8-driven TPO luciferase reporter, dose response, RMG-I cells, cherry-pick (AID 687027); type: functional, cell-based;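 also: luciferase reporter driven by Pax8 target thyroperoxidase promoter measured by SteadyGlo luminescence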
[18] = non-specific cell cytotoxicity, dose response, cytotoxicity control for PAX8 inhibitor project, plate reader, dry powder samples (AID 743021); type: functional, cell-based
[19] = IGROV1 ovarian cancer cell cytotoxicity, dose response, PAX8 inhibitor project, plate reader, dry powder samples (AID 743043); type: functional, cell-based; conditions: IGROV-1
[20] = HepG2 cell cytotoxicity, dose response, cytotoxicity control, cherry-picked samples (AID 1159577); type: functional, cell-based
[21] = inhibitors of PGC1a acetylation in cells, dose response, cell-based, cherry-picked samples (AID 720514); type: functional;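 also: potency may reflect raised or lowered acetylation signal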
[22] = cytotoxicity in OVCAR8 ovarian cancer cells, dose response, PAX8 project, cell-based, plate reader, dry powder samples (AID 743197); type: functional; conditions: OVCAR-8
[23] = P. falciparum Dd2 growth inhibitors, dose response, SYBR Green, cherry-picked samples (AID 1159567); type: functional, cell-based
HeLa = assay: HeLa cell cytotoxicity, dose response, cytotoxicity control, ATP luminescence, cherry-pick samples (AID 687004); type: functional, cell-based; conditions: Homo sapiens
[24] = target: T3, Nuclear receptor subfamily 0 group B member 1 (Homo sapiens, UniProt P51843); type: functional, cell-based;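 also: HEK293T cells transfected with SF-1 and DAX-1 plus StAR promoter luciferase reporter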
T3 sequence (P51843 whole entry): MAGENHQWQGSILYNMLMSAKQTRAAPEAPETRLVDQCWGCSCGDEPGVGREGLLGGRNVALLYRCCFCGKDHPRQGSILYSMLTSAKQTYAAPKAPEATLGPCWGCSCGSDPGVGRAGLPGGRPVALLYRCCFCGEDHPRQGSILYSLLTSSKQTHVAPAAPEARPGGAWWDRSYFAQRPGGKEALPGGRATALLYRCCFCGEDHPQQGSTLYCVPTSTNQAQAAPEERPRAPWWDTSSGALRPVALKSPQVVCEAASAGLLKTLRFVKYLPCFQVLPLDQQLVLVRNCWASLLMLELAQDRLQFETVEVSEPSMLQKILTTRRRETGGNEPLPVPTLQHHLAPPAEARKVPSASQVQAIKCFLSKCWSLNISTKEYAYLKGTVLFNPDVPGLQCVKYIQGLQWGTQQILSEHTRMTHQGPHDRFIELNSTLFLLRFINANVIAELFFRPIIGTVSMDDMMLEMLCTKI

cells [25] = type: functional, cell-based
[26] = NIH-3T3 fibroblast cytotoxicity, dose response, cytotoxicity control, cell-based, fluorescence, Alamar Blue, secondary assay (AID 2327); type: functional;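 also: NIH-3T3 mouse fibroblasts cultured with fluconazole at 8 µg/mL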
[27] = C. albicans growth with fluconazole, confirmation, fluorescence, retest (AID 2467); type: functional, cell-based
[28] = target: Matrix metalloproteinase-14 (Homo sapiens, UniProt P50281); assay: Dose Response confirmation of uHTS hits for a small molecule inhibitors of MT1-MMP activation in a fluorescence assay set 1.; type: functional

Cc1nnc(NC(=O)CSc2n[nH]c3c4cc(Br)ccc4nc-3n2)s1
IC50 [1]: 3.87 µM (active)
IC50 [2]: 1.36 µM (active)
IC50 [3]: 83.3 µM (inactive)

CCC(Sc1ccc2nnc(-c3ccc(F)cc3)n2n1)C(=O)O (stereo not given)
IC50 (cells [4]): > 138 µM (inactive)
IC50 (Major prion protein): 13 µM (inactive)

COc1cccc2c1C(=O)O/C2=C/c1ccc2c(c1)OCO2
AC50 [5]: 2.1 µM (active)
AC50 [6]: 2.69 µM (active)
AC50 [7]: > 52 µM (inactive)
AC50 [8]: > 52 µM (inactive)
AC50 [9]: > 52 µM (inactive)

Cc1oc(-c2ccc(Cl)cc2)nc1CSCC(=O)NC1CCN(Cc2ccccc2)CC1
IC50 (Galanin receptor type 3): 1.29 µM (active)
IC50 (HEK293 [10]): 9.78 µM (active)
IC50 (HEK293 [11]): 3.08 µM (active)
IC50 (HEK293 [12]): 1.68 µM (active)
EC50 (HEK293 [13]): 2.62 µM (active)
EC50 (cells [14]): > 29.9 µM (inactive)

Cc1ccc(CCNc2ncnc(Cl)c2N)cc1
IC50 (Galanin receptor type 3): 0.626 µM (active)
EC50 (cells [14]): > 29.9 µM (inactive)

Cc1ccc(NC(=O)CN2CCN(c3ccccn3)CC2)cc1S(=O)(=O)N(C)C
EC50 [15]: 0.685 µM (active)
EC50 (Mu-type opioid receptor): 92.5 µM (inactive)

O=C(NCc1cc(C(F)(F)F)ccc1Cl)c1cccc2c1C(=O)c1ccc(N3CCC(N4CCCCC4)CC3)cc1S2(=O)=O
IC50 [16]: 11.1 µM (active)
IC50 [17]: > 66.6 µM (inactive)
AC50 (Paired box protein Pax-8): 11.7 µM (active)
AC50 [18]: 19.7 µM (active)

COc1ccc2c3c(n(C)c2c1)[C@H](CO)NCC31CCN(Cc2cc(-c3ccccc3)on2)CC1
AC50 [19]: 25.1 µM (active)
AC50 [20]: 7.77 µM (active)
AC50 [21]: 12.9 µM (active)
AC50 (Paired box protein Pax-8): 7.96 µM (active)
AC50 [18]: 43 µM (active)
AC50 [22]: 24.1 µM (active)
AC50 [23]: 1.64 µM (active)

COc1cccc(-c2ccc3c(c2)[C@H]2[C@H](CCN2C(=O)Cc2ccncc2)[C@H](CO)N3C)c1
AC50 (HeLa): > 52 µM (inactive)

c1ccc(Nc2nnc(-c3ccc4c(c3)OCO4)o2)cc1
AC50 [5]: 2.58 µM (active)
AC50 [6]: 2.76 µM (active)
AC50 [7]: 12.3 µM (active)
AC50 [8]: 10.8 µM (active)
IC50 [24]: > 0.0926 µM (active)
AC50 [9]: 6.3 µM (active)
IC50 (cells [25]): > 67.5 µM (inactive)

Cc1ccc(SCCC(=O)N/N=C/c2ccccc2O)cc1
IC50 [1]: 4.39 µM (active)
IC50 [2]: 4.49 µM (active)
IC50 [3]: 16.1 µM (inactive)
EC50 [26]: > 160 µM (inactive)
EC50 [27]: 4.74 µM (active)

CN1C(=O)/C(=C2/C=Cc3ccccc3N2CCCS(=O)(=O)O)SC1=S
IC50 [28]: > 80 µM (inactive)
